Assay results taken from patent US20170050957A1, “4-AMINO-6-(HETEROCYCLIC)PICOLINATES AND 6-AMINO-2-(HETEROCYCLIC)PYRIMIDINE-4-CARBOXYLATES AND THEIR USE AS HERBICIDES” (Dow AgroSciences LLC, priority 2013, published 2017).
Like-named read-outs stand apart in the source and are kept apart here.

What was measured:
[1] = test system: Key Broadleaf Weed and Crop Species; experiment: Post-emergent Test II herbicidal activity (Table 15); type: in vivo; details: post-emergence, 336 h, 14 d; for pest or weed control at 35 g/ha: 35 g ai/ha; for pest or weed control at 70 g/ha: 70 g ai/ha; for pest or weed control at 140 g/ha: 140 g ai/ha
In short: (§1)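 Visual injury rating (0 = none, 100 = complete kill) taken 14 d after treatment, relative to untreated plants. Compounds in acetone/DMSO with crop oil concentrate and Triton X-155 were track-sprayed at 187 L/ha onto seedlings at the first-second true leaf stage.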

[2] = test system: Key Grass and Sedge Weeds as well as Grass Crops; experiment: Post-emergent Test II herbicidal activity (Table 16); type: in vivo; details: post-emergence, 336 h, 14 d; for pest or weed control at 35 g/ha: 35 g ai/ha; for pest or weed control at 70 g/ha: 70 g ai/ha; for pest or weed control at 140 g/ha: 140 g ai/ha
In short: as §1

[3] = Abutilon theophrasti, velvetleaf (Abutilon theophrasti), read-out: Visual Growth Reduction (%) 14 Days After Application, ABUTH
[4] = Amaranthus retroflexus, redroot pigweed (Amaranthus retroflexus), read-out: Visual Growth Reduction (%) 14 Days After Application, AMARE
[5] = Brassica napus, oilseed rape, canola (Brassica napus), read-out: Visual Growth Reduction (%) 14 Days After Application, BRSNN
[6] = Chenopodium album, lambsquarters (Chenopodium album), read-out: Visual Growth Reduction (%) 14 Days After Application, CHEAL
[7] = Euphorbia heterophylla, wild poinsettia (Euphorbia heterophylla), read-out: Visual Growth Reduction (%) 14 Days After Application, EPHHL
[8] = Helianthus annuus, sunflower (Helianthus annuus), read-out: Visual Growth Reduction (%) 14 Days After Application, HELAN
[9] = Cyperus esculentus, yellow nutsedge (Cyperus esculentus), read-out: Visual Growth Reduction (%) 14 Days After Application, CYPES
[10] = Echinochloa crus-galli, barnyardgrass (Echinochloa crus-galli), read-out: Visual Growth Reduction (%) 14 Days After Application, ECHCG
[11] = Oryza sativa, rice (Oryza sativa), read-out: Visual Growth Reduction (%) 14 Days After Application, ORYSA
[12] = Setaria faberi, giant foxtail (Setaria faberi), read-out: Visual Growth Reduction (%) 14 Days After Application, SETFA
[13] = Triticum aestivum, wheat, spring (Triticum aestivum), read-out: Visual Growth Reduction (%) 14 Days After Application, TRZAS
[14] = Zea mays, maize, corn (Zea mays), read-out: Visual Growth Reduction (%) 14 Days After Application, ZEAMX

Compound | pest or weed control at 35 g/ha [1, 3] [%] | pest or weed control at 70 g/ha [1, 3] [%] | pest or weed control at 140 g/ha [1, 3] [%] | pest or weed control at 35 g/ha [1, 4] [%] | pest or weed control at 70 g/ha [1, 4] [%] | pest or weed control at 140 g/ha [1, 4] [%] | pest or weed control at 35 g/ha [1, 5] [%] | pest or weed control at 70 g/ha [1, 5] [%] | pest or weed control at 140 g/ha [1, 5] [%] | pest or weed control at 35 g/ha [1, 6] [%] | pest or weed control at 70 g/ha [1, 6] [%] | pest or weed control at 140 g/ha [1, 6] [%] | pest or weed control at 35 g/ha [1, 7] [%] | pest or weed control at 70 g/ha [1, 7] [%] | pest or weed control at 140 g/ha [1, 7] [%] | pest or weed control at 35 g/ha [1, 8] [%] | pest or weed control at 70 g/ha [1, 8] [%] | pest or weed control at 140 g/ha [1, 8] [%] | pest or weed control at 35 g/ha [2, 9] [%] | pest or weed control at 70 g/ha [2, 9] [%] | further results
COC(=O)c1nc(-c2ccc(Cl)c3ccoc23)c(F)c(N)c1Cl [Compound 2.24] | 75 to 84 | 75 to 84 | 95 to 100 | 95 to 100 | 95 to 100 | 95 to 100 | 60 to 74 | 75 to 84 | 75 to 84 | 95 to 100 | 95 to 100 | 95 to 100 | 60 to 74 | 75 to 84 | 75 to 84 | 75 to 84 | 75 to 84 | 85 to 94 | 60 to 74 | 75 to 84 | pest or weed control at 140 g/ha [2, 9]: 85 to 94%; pest or weed control at 35 g/ha [2, 10]: 0 to 29%; pest or weed control at 70 g/ha [2, 10]: 0 to 29%; pest or weed control at 140 g/ha [2, 10]: 0 to 29%; pest or weed control at 35 g/ha [2, 11]: 0 to 29%; pest or weed control at 70 g/ha [2, 11]: 0 to 29%; pest or weed control at 140 g/ha [2, 11]: 0 to 29%; pest or weed control at 35 g/ha [2, 12]: 0 to 29%; pest or weed control at 70 g/ha [2, 12]: 0 to 29%; pest or weed control at 140 g/ha [2, 12]: 0 to 29%; pest or weed control at 35 g/ha [2, 13]: 0 to 29%; pest or weed control at 70 g/ha [2, 13]: 0 to 29%; pest or weed control at 140 g/ha [2, 13]: 0 to 29%; pest or weed control at 35 g/ha [2, 14]: 0 to 29%; pest or weed control at 70 g/ha [2, 14]: 30 to 44%; pest or weed control at 140 g/ha [2, 14]: 60 to 74%; melting point: 167 °C
COC(=O)c1nc(-c2ccc(Cl)c3ccoc23)cc(N)c1Cl [Compound 2.25] | 75 to 84 | 75 to 84 | 95 to 100 | 95 to 100 | 95 to 100 | 95 to 100 | 0 to 29 | 45 to 59 | 75 to 84 | 95 to 100 | 95 to 100 | 95 to 100 | 0 to 29 | 75 to 84 | 85 to 94 | 0 to 29 | 30 to 44 | 85 to 94 | 0 to 29 | 30 to 44 | pest or weed control at 140 g/ha [2, 9]: 75 to 84%; pest or weed control at 35 g/ha [2, 10]: 0 to 29%; pest or weed control at 70 g/ha [2, 10]: 0 to 29%; pest or weed control at 140 g/ha [2, 10]: 0 to 29%; pest or weed control at 35 g/ha [2, 11]: 0 to 29%; pest or weed control at 70 g/ha [2, 11]: 0 to 29%; pest or weed control at 140 g/ha [2, 11]: 0 to 29%; pest or weed control at 35 g/ha [2, 12]: 0 to 29%; pest or weed control at 70 g/ha [2, 12]: 0 to 29%; pest or weed control at 140 g/ha [2, 12]: 0 to 29%; pest or weed control at 35 g/ha [2, 13]: 0 to 29%; pest or weed control at 70 g/ha [2, 13]: 0 to 29%; pest or weed control at 140 g/ha [2, 13]: 0 to 29%; pest or weed control at 35 g/ha [2, 14]: 0 to 29%; pest or weed control at 70 g/ha [2, 14]: 0 to 29%; pest or weed control at 140 g/ha [2, 14]: 45 to 59%; melting point: 169 °C
COC(=O)c1nc(-c2ccc(Cl)c3ccoc23)nc(N)c1OC [Compound 2.26] | 45 to 59 | 60 to 74 | 60 to 74 | 95 to 100 | 95 to 100 | 95 to 100 | 45 to 59 | 60 to 74 | 60 to 74 | 95 to 100 | 95 to 100 | 95 to 100 | 45 to 59 | 60 to 74 | 75 to 84 | 75 to 84 | 95 to 100 | 95 to 100 | 0 to 29 | 0 to 29 | pest or weed control at 140 g/ha [2, 9]: 0 to 29%; pest or weed control at 35 g/ha [2, 10]: 0 to 29%; pest or weed control at 70 g/ha [2, 10]: 0 to 29%; pest or weed control at 140 g/ha [2, 10]: 0 to 29%; pest or weed control at 35 g/ha [2, 11]: 0 to 29%; pest or weed control at 70 g/ha [2, 11]: 0 to 29%; pest or weed control at 140 g/ha [2, 11]: 0 to 29%; pest or weed control at 35 g/ha [2, 12]: 0 to 29%; pest or weed control at 70 g/ha [2, 12]: 0 to 29%; pest or weed control at 140 g/ha [2, 12]: 0 to 29%; pest or weed control at 35 g/ha [2, 13]: 0 to 29%; pest or weed control at 70 g/ha [2, 13]: 0 to 29%; pest or weed control at 140 g/ha [2, 13]: 0 to 29%; pest or weed control at 35 g/ha [2, 14]: 0 to 29%; pest or weed control at 70 g/ha [2, 14]: 0 to 29%; pest or weed control at 140 g/ha [2, 14]: 0 to 29%; melting point: 178 °C
